Laboratory results from PMC10590383, “Repurposing conformational changes in ANL superfamily enzymes to rapidly generate biosensors for organic and amino acids” (Nature Communications, 2023).

Key:
Assay type in all cases: biochemical
[1] = biological target: T1, GECFINDER-Leu2 (Aneurinibacillus migulanus, UniProt P0C061, A301G/I277L/T278L); experiment: Fluorescence dose-response of purified binding-pocket-engineered sensors (0.75 uM) in 100 mM Tris-HCl pH 7.5, room temperature, 1 mM ATP, 2.5 mM MgCl2, excitation 460 or 480 nm, emission 510 nm; logistic five-parameter fit.; conditions: n = 3
T1 construct: gene grsA
Procedure: (§1) Fig. 4 Engineering ligand specificity of GrsA-PheA for generating […]s. a The selectivity-conferring code of Phe and Leu A domains. b–f Dose–response curve of purified […]s with increasing concentrations of ligands in 100 mM Tris-HCl buffer (pH=7.5). All data shown are means ± S.D. (n = 3 biologically independent samples). g A series of […] reactions was tested to show the […]’s specificity with 20 proteinogenic amino acids. The values on the heatmap represent the ΔF/F0 value normalized to each […]’s maximal ΔF/F0 value ((ΔF/F0)/maximal ΔF/F0). The concentrations of 20 amino acids were 100 μM. The color indicates the average value of three independent biological replicates after 15 min. All data shown are means ± S.D. (n = 3 biologically independent samples). Source data are provided as a Source data file.
(§2) The study conducted dose–response curve, substrate specificity, and fluorescent spectrum analyses in 100-mM Tris buffer (pH = 7.5), while pH stability experiments were performed in 100-mM Tris buffer at three different pH values (6.5, 7.5, and 8.5) at room temperature. […] protein at a concentration of 0.75 μM, various small molecule concentrations, 1 mM ATP, and 2.5 mM MgCl2 were used in the experiments. Fluorescent signals were detected using a Microplate Reader (Synergy H4, Bio Tek) at an excitation/emission wavelength of 460 nm/510 nm or 480 nm/510 nm. The dose-response curve was determined immediately after the addition of the analyte. The total duration of the measurement was 15 min, with readings taken at one-minute intervals. The dose-response curve was plotted using the fluorescence values obtained after achieving stability in the fluorescence signal. The dose-response curves were fitted using the logistic model LOGISTIC5 available in Origin 2021, which could provide a more adequate fit to asymmetric dose-response data[62],[63]. Excitation spectra were scanned from 300 to 540 nm with a step size of 5 nm, and the emission wavelength was set to 560 nm. Emission spectra were scanned from 470 to 700 nm with a step size of 5 nm, and the excitation wavelength was set to 450 nm. The thermal stability of […] was analyzed using the UNcle multifunctional protein stability analysis system. Measurements were performed in 20 mM MOPS buffer with 2 mM DTT at a sample concentration of 1 mg/mL. Absolute fluorescence quantum yields were measured using an absolute photoluminescence quantum yield spectrometer (FS5, Edinburgh).

[2] = biological target: T2, GECFINDER-Leu4 (Aneurinibacillus migulanus, UniProt P0C061, A301G/I277L/S447N/T278L); experiment: as above; conditions: n = 3
T2 construct: gene grsA
Procedure: as §1, §2

[3] = biological target: T3, GECFINDER-Leu3 (Aneurinibacillus migulanus, UniProt P0C061, A301G/S447N/T278L); experiment: as above; conditions: n = 3
T3 construct: gene grsA
Procedure: as §1, §2

[4] = biological target: GECFINDER-SβF; experiment: as above; conditions: n = 3
Procedure: as §1, §2

[5] = biological target: T4, GECFINDER-Tyr (Aneurinibacillus migulanus, UniProt P0C061, W239S); experiment: as above; conditions: n = 3
T4 construct: gene grsA
Procedure: as §1, §2

[6] = Dose–response curve of purified […]s with phenylalanine
Procedure: Fig. 3 Dose–response curves and fluorescence spectrums of […]s. a, c, e, g, i, k Dose–response curve of purified […]s with increasing concentrations of ligand in 100 mM Tris-HCl buffer (pH=7.5). The normalized ΔF/F0 value increased after ligand binding. All data shown are mean ± S.D. (n = 3 biologically independent samples). b, d, f, h, j, l The fluorescence spectra of […]s changed as the ligand concentration increased. All data shown are mean ± S.D. (n = 3 biologically independent samples). Source data are provided as a Source data file.
as §1, §2

N[C@@H](Cc1ccccc1)C(=O)O [Phe, phenylalanine]
EC50 [1]: 606 ± 407 µM
EC50 [2]: 158 ± 22.6 µM
EC50 [3]: 392 ± 51.8 µM
EC50 [4]: 234 ± 23.7 µM
EC50 [5]: 258 ± 37.3 µM

N[C@@H](Cc1ccccc1)C(=O)O [Phe]
AVE, dose-response Fig. 4 b ([6]; substrate Phe 0.001 μM): 0
AVE, dose-response Fig. 4 b ([6]; substrate Phe 0.005 μM): 0.04668
AVE, dose-response Fig. 4 b ([6]; substrate Phe 0.01 μM): 0.05356
AVE, dose-response Fig. 4 b ([6]; substrate Phe 0.05 μM): 0.1413
AVE, dose-response Fig. 4 b ([6]; substrate Phe 0.1 μM): 0.2634
AVE, dose-response Fig. 4 b ([6]; substrate Phe 0.5 μM): 0.9215
AVE, dose-response Fig. 4 b ([6]; substrate Phe 1 μM): 1.384
AVE, dose-response Fig. 4 b ([6]; substrate Phe 5 μM): 2.412
AVE, dose-response Fig. 4 b ([6]; substrate Phe 10 μM): 2.788
AVE, dose-response Fig. 4 b ([6]; substrate Phe 25 μM): 3.108
AVE, dose-response Fig. 4 b ([6]; substrate Phe 50 μM): 3.25
AVE, dose-response Fig. 4 b ([6]; substrate Phe 100 μM): 3.385
AVE, dose-response Fig. 4 c ([6]; substrate Phe 0.5 μM): 0
AVE, dose-response Fig. 4 c ([6]; substrate Phe 1 μM): 0.02176
AVE, dose-response Fig. 4 c ([6]; substrate Phe 2 μM): 0.04684
AVE, dose-response Fig. 4 c ([6]; substrate Phe 5 μM): 0.0476
AVE, dose-response Fig. 4 c ([6]; substrate Phe 10 μM): 0.102
AVE, dose-response Fig. 4 c ([6]; substrate Phe 20 μM): 0.1609
AVE, dose-response Fig. 4 c ([6]; substrate Phe 50 μM): 0.1914
AVE, dose-response Fig. 4 c ([6]; substrate Phe 100 μM): 0.2096
AVE, dose-response Fig. 4 c ([6]; substrate Phe 200 μM): 0.2332
AVE, dose-response Fig. 4 c ([6]; substrate Phe 500 μM): 0.2962
AVE, dose-response Fig. 4 c ([6]; substrate Phe 750 μM): 0.3509
AVE, dose-response Fig. 4 c ([6]; substrate Phe 1000 μM): 0.2649
AVE, dose-response Fig. 4 e ([6]; substrate Phe 0.1 μM): -6.4763e-17
AVE, dose-response Fig. 4 e ([6]; substrate Phe 0.2 μM): 0.02607
AVE, dose-response Fig. 4 e ([6]; substrate Phe 1 μM): 0.02065
AVE, dose-response Fig. 4 e ([6]; substrate Phe 2 μM): 0.01654
AVE, dose-response Fig. 4 e ([6]; substrate Phe 10 μM): 0.06065
AVE, dose-response Fig. 4 e ([6]; substrate Phe 20 μM): 0.08275
AVE, dose-response Fig. 4 e ([6]; substrate Phe 100 μM): 0.1347
AVE, dose-response Fig. 4 e ([6]; substrate Phe 200 μM): 0.2309
AVE, dose-response Fig. 4 e ([6]; substrate Phe 500 μM): 0.3796
AVE, dose-response Fig. 4 e ([6]; substrate Phe 1000 μM): 0.4613
AVE, dose-response Fig. 4 e ([6]; substrate Phe 1500 μM): 0.4963
AVE, dose-response Fig. 4 e ([6]; substrate Phe 2000 μM): 0.5161
AVE, dose-response Fig. 4 f ([6]; substrate Phe 0.0001 μM): -0.000122
AVE, dose-response Fig. 4 f ([6]; substrate Phe 0.001 μM): 0.002395
AVE, dose-response Fig. 4 f ([6]; substrate Phe 0.01 μM): 0.009697
AVE, dose-response Fig. 4 f ([6]; substrate Phe 0.1 μM): 0.01529
AVE, dose-response Fig. 4 f ([6]; substrate Phe 1 μM): -0.009047
AVE, dose-response Fig. 4 f ([6]; substrate Phe 10 μM): 0.009571
AVE, dose-response Fig. 4 f ([6]; substrate Phe 50 μM): 0.1062
AVE, dose-response Fig. 4 f ([6]; substrate Phe 100 μM): 0.2173
AVE, dose-response Fig. 4 f ([6]; substrate Phe 500 μM): 0.5047
AVE, dose-response Fig. 4 f ([6]; substrate Phe 1000 μM): 0.643
AVE, dose-response Fig. 4 f ([6]; substrate Phe 5000 μM): 0.6763
AVE, dose-response Fig. 4 f ([6]; substrate Phe 10000 μM): 0.7368
AVE, dose-response Fig. 4 d ([6]; substrate Phe 0.01 μM): 0.02814
AVE, dose-response Fig. 4 d ([6]; substrate Phe 0.1 μM): 0.03519
AVE, dose-response Fig. 4 d ([6]; substrate Phe 1 μM): 0.04924
AVE, dose-response Fig. 4 d ([6]; substrate Phe 5 μM): 0.06403
AVE, dose-response Fig. 4 d ([6]; substrate Phe 10 μM): 0.08037
AVE, dose-response Fig. 4 d ([6]; substrate Phe 50 μM): 0.1108
AVE, dose-response Fig. 4 d ([6]; substrate Phe 100 μM): 0.1713
AVE, dose-response Fig. 4 d ([6]; substrate Phe 200 μM): 0.2373
AVE, dose-response Fig. 4 d ([6]; substrate Phe 500 μM): 0.3495
AVE, dose-response Fig. 4 d ([6]; substrate Phe 750 μM): 0.3806
AVE, dose-response Fig. 4 d ([6]; substrate Phe 1000 μM): 0.3842
fluorescence response of GECFINDER, AVE of 3 repeats ([6]; Supplementary Fig. 3 a, Phe 0.001 μM): 0
fluorescence response of GECFINDER, AVE of 3 repeats ([6]; Supplementary Fig. 3 a, Phe 0.005 μM): 0.03394
fluorescence response of GECFINDER, AVE of 3 repeats ([6]; Supplementary Fig. 3 a, Phe 0.01 μM): 0.09128
fluorescence response of GECFINDER, AVE of 3 repeats ([6]; Supplementary Fig. 3 a, Phe 0.1 μM): 0.1211
fluorescence response of GECFINDER, AVE of 3 repeats ([6]; Supplementary Fig. 3 a, Phe 1 μM): 0.1406
fluorescence response of GECFINDER, AVE of 3 repeats ([6]; Supplementary Fig. 3 a, Phe 10 μM): 0.1472
fluorescence response of GECFINDER, AVE of 3 repeats ([6]; Supplementary Fig. 3 a, Phe 50 μM): 0.1578
fluorescence response of GECFINDER, AVE of 3 repeats ([6]; Supplementary Fig. 3 a, Phe 100 μM): 0.198
fluorescence response of GECFINDER, AVE of 3 repeats ([6]; Supplementary Fig. 3 a, Phe 500 μM): 0.3919
fluorescence response of GECFINDER, AVE of 3 repeats ([6]; Supplementary Fig. 3 a, Phe 1000 μM): 0.5221
fluorescence response of GECFINDER, AVE of 3 repeats ([6]; Supplementary Fig. 3 a, Phe 5000 μM): 0.7757
fluorescence response of GECFINDER, AVE of 3 repeats ([6]; Supplementary Fig. 3 a, Phe 10000 μM): 0.7576
fluorescence response of GECFINDER, AVE of 3 repeats ([6]; Supplementary Fig. 3 b, Phe 0.001 μM): -4.337e-17
fluorescence response of GECFINDER, AVE of 3 repeats ([6]; Supplementary Fig. 3 b, Phe 0.005 μM): 0.01069
fluorescence response of GECFINDER, AVE of 3 repeats ([6]; Supplementary Fig. 3 b, Phe 0.01 μM): -0.003867
fluorescence response of GECFINDER, AVE of 3 repeats ([6]; Supplementary Fig. 3 b, Phe 0.1 μM): 0.001408
fluorescence response of GECFINDER, AVE of 3 repeats ([6]; Supplementary Fig. 3 b, Phe 1 μM): 0.04065
fluorescence response of GECFINDER, AVE of 3 repeats ([6]; Supplementary Fig. 3 b, Phe 10 μM): 0.112
fluorescence response of GECFINDER, AVE of 3 repeats ([6]; Supplementary Fig. 3 b, Phe 50 μM): 0.2916
fluorescence response of GECFINDER, AVE of 3 repeats ([6]; Supplementary Fig. 3 b, Phe 100 μM): 0.4046
fluorescence response of GECFINDER, AVE of 3 repeats ([6]; Supplementary Fig. 3 b, Phe 500 μM): 0.8587
fluorescence response of GECFINDER, AVE of 3 repeats ([6]; Supplementary Fig. 3 b, Phe 1000 μM): 1.065
fluorescence response of GECFINDER, AVE of 3 repeats ([6]; Supplementary Fig. 3 b, Phe 5000 μM): 1.452
fluorescence response of GECFINDER, AVE of 3 repeats ([6]; Supplementary Fig. 3 b, Phe 10000 μM): 1.455
